{"source": "patent US11559510B2", "about": "“Isoflavonoid composition with improved pharmacokinetics” (NOXOPHARM LIMITED, priority 2016, dated 2023)", "experiment": "Plasma pharmacokinetic studies of idronoxil in rats (rectal in cocoa butter vs intestinal in lipid emulsion)", "assay_type": "in vivo, Male Sprague-Dawley rats", "conditions": "for Peak Area in rat plasma, Rat 2 / Peak Area in rat plasma, Rat 1 / Peak Area in rat plasma, Rat 3 / half-life / concentration at 0 h / concentration at 1 h / concentration at 2 h: 10 mg/kg; for half-life / concentration at 0 h / concentration at 1 h / concentration at 2 h: male, Sprague-Dawley, rat, plasma; for concentration at 0 h / concentration at 1 h / concentration at 2 h: other: intraduodenal infusion, Intestinal delivery (intraduodenal infusion)", "experimental": "The objective of this study in rodents is to determine the plasma pharmacokinetics of idronoxil after rectal delivery and intestinal delivery in lipids (cocoa butter or emulsion).\nPart (1); n=3 rats: Rectal administration of idronoxil in cocoa butter liquid formulation, collection of plasma.\nPart (2); n=3 rats: Intestinal administration (intraduodenal infusion) of idronoxil in lipid formulation, collection of plasma.\n3 mg idronoxil per rat (equivalent to 10 mg/kg idronoxil).\nPreparation of lipid formulation for intestinal dosing: Briefly, 3 mg of idronoxil, 80 mg oleic acid and 50 mg Tween 80 were mixed in a glass vial as the lipid phase. An aqueous phase consisting of 5.6 mL phosphate buffered saline (PBS, pH 7.4) was subsequently added to the lipid phase and the formulation emulsified by ultrasonication with a Misonix XL 2020 ultrasonic processor equipped with a 3.2-mm microprobe tip running at an amplitude of 240 μm and a frequency of 20 kHz for 4 min at room temperature.\nDose administration: The lipid formulations were infused into the duodenum of the rats at 2.8 mL/h for 2 h. After that, normal saline was infused into the duodenum at 2.8 mL/h for the remainder of the experiment to hydrate the animals.\nPreparation of cocoa butter formulation for rectal dosing: Briefly, 100 mg of the cocoa butter was weighed into a homogenizer glass tube and melted at 32 degrees Celsius. 3 mg of idronoxil was then added and the formulation mixed manually with the homogenizer.\nDose administration: The warmed/melted cocoa butter formulations were dosed into the rectum via placing the tip of a 3 cm plastic mouse oral gavage device attached to a 1 ml plastic syringe exactly 1 cm into the rectum. The formulation was dosed over 15 sec. After that, normal saline was infused into the duodenum at 2.8 mL/h for the remainder of the experiment to hydrate the animals.\nMale Sprague-Dawley rats (n=3 per group, body weight 300±40 g) were used in the study. Each animal was fasted overnight prior to surgical cannulation of the carotid artery and duodenum.\nThe rats were anaesthetized (using isoflurane anesthesia), placed on a heated pad at 37° C. and cannulas were inserted into the duodenum (for dosing of lipid formulation and rehydration) and carotid artery (for blood collection).\nPost-surgery, rats were re-hydrated for 0.5 h via intraduodenal infusion of normal saline at 2.8 mL/h prior to dosing via intraduodenal or rectal route.\nPlasma collection: Plasma samples were collected for 8 h into Eppendorf tubes containing 5 μL of 1,000 IU/mL heparin. Aliquots (20 μL) of each hourly collected samples were transferred into labelled 1.5 mL Eppendorf tubes. Aliquoted and original bulk samples were stored at −20° C. until analysis.\nSample analysis: Plasma concentrations of idronoxil were measured by the HMST-lab using a validated HPLC-MS/MS method. Briefly, LC-MS analysis was performed on a Shimadzu 8050 triple quadrupole mass spectrometer coupled with a Shimadzu Nexera X2 UHPLC. MS analysis was conducted in positive mode electrospray ionisation and quantitation of the analytes performed in MRM mode. The column employed was a Phenomenex Kinetex EVO C18 column (2.6 μm particle size, 50×2.1 mm i.d.) equipped with a Phenomenex Security Guard column with C18 packing material. The column was maintained at 40-C. The mobile phase consisted of 0.2% formic acid in water (Mobile Phase A) and 100% acetonitrile (Mobile Phase B). Separations were conducted using a flow rate of 0.4 mL/min and an injection volume of 6 μL. Samples were controlled in the autosampler at a temperature of 10° C.\nNon-compartmental pharmacokinetic (PK) analysis: The elimination rate constant (slope), half-life (i.e., 0.693/k), and mean residence time (MRT) were calculated using excel. The area under the plasma-concentration time curves from time zero to 8 h (AUC0-8 h) were calculated using the trapezoid rule to the last measured time point.", "key": {"[1]": {"conditions": "Intestinal administration of idronoxil, lipid emulsion, 1 hrs"}, "[2]": {"conditions": "Intestinal administration of idronoxil, lipid emulsion, 2 hrs"}, "[3]": {"conditions": "Intestinal administration of idronoxil, lipid emulsion, 3 hrs"}, "[4]": {"conditions": "Intestinal administration of idronoxil, lipid emulsion, 4 hrs"}, "[5]": {"conditions": "Intestinal administration of idronoxil, lipid emulsion, 5 hrs"}, "[6]": {"conditions": "Intestinal administration of idronoxil, lipid emulsion, 6 hrs"}, "[7]": {"conditions": "Intestinal administration of idronoxil, lipid emulsion, 7 hrs"}, "[8]": {"conditions": "Intestinal administration of idronoxil, lipid emulsion, 8 hrs"}, "[9]": {"conditions": "Rectal administration of idronoxil, cocoa butter, 1 hrs"}, "[10]": {"conditions": "Rectal administration of idronoxil, cocoa butter, 2 hrs"}, "[11]": {"conditions": "Rectal administration of idronoxil, cocoa butter, 3 hrs"}, "[12]": {"conditions": "Rectal administration of idronoxil, cocoa butter, 4 hrs"}, "[13]": {"conditions": "Rectal administration of idronoxil, cocoa butter, 5 hrs"}, "[14]": {"conditions": "Rectal administration of idronoxil, cocoa butter, 6 hrs"}, "[15]": {"conditions": "Rectal administration of idronoxil, cocoa butter, 7 hrs"}, "[16]": {"conditions": "Rectal administration of idronoxil, cocoa butter, 8 hrs"}, "[17]": {"conditions": "intestinally-dosed rats compared with rectally-dosed rats"}, "[18]": {"conditions": "lipid emulsion, read-out: Idronoxil Plasma Concentration Mean"}, "[19]": {"conditions": "lipid emulsion, read-out: Idronoxil Plasma Concentration Rat 2"}, "[20]": {"conditions": "lipid emulsion, read-out: Idronoxil Plasma Concentration Rat 1"}}, "note": "Where two headings read alike, the source gives them in different places.", "data": [{"smiles": "Oc1ccc(C2=Cc3ccc(O)cc3OC2)cc1", "note": "[Idronoxil, 2H-1-Benzopyran-7-0,1,3-(4-hydroxyphenyl)]", "values": [{"measurement": "Peak Area in rat plasma, Rat 2", "setting": "Intestinal administration of idronoxil, lipid emulsion, 0 hrs", "result": "62,126"}, {"measurement": "Peak Area in rat plasma, Rat 1", "setting": "[1]", "result": "236,465"}, {"measurement": "Peak Area in rat plasma, Rat 2", "setting": "[1]", "result": "184,114"}, {"measurement": "Peak Area in rat plasma, Rat 3", "setting": "[1]", "result": "222,037"}, {"measurement": "Peak Area in rat plasma, Rat 1", "setting": "[2]", "result": "335,894"}, {"measurement": "Peak Area in rat plasma, Rat 2", "setting": "[2]", "result": "238,289"}, {"measurement": "Peak Area in rat plasma, Rat 3", "setting": "[2]", "result": "237,900"}, {"measurement": "Peak Area in rat plasma, Rat 1", "setting": "[3]", "result": "34,094"}, {"measurement": "Peak Area in rat plasma, Rat 2", "setting": "[3]", "result": "71,267"}, {"measurement": "Peak Area in rat plasma, Rat 3", "setting": "[3]", "result": "32,152"}, {"measurement": "Peak Area in rat plasma, Rat 1", "setting": "[4]", "result": "25,198"}, {"measurement": "Peak Area in rat plasma, Rat 2", "setting": "[4]", "result": "14,571"}, {"measurement": "Peak Area in rat plasma, Rat 3", "setting": "[4]", "result": "13,053"}, {"measurement": "Peak Area in rat plasma, Rat 1", "setting": "[5]", "result": "26,342"}, {"measurement": "Peak Area in rat plasma, Rat 2", "setting": "[5]", "result": "10,183"}, {"measurement": "Peak Area in rat plasma, Rat 3", "setting": "[5]", "result": "13,297"}, {"measurement": "Peak Area in rat plasma, Rat 1", "setting": "[6]", "result": "6,108"}, {"measurement": "Peak Area in rat plasma, Rat 2", "setting": "[6]", "result": "8,531"}, {"measurement": "Peak Area in rat plasma, Rat 3", "setting": "[6]", "result": "17,321"}, {"measurement": "Peak Area in rat plasma, Rat 1", "setting": "[7]", "result": "8,023"}, {"measurement": "Peak Area in rat plasma, Rat 2", "setting": "[7]", "result": "14,276"}, {"measurement": "Peak Area in rat plasma, Rat 3", "setting": "[7]", "result": "8,371"}, {"measurement": "Peak Area in rat plasma, Rat 1", "setting": "[8]", "result": "13,012"}, {"measurement": "Peak Area in rat plasma, Rat 2", "setting": "[8]", "result": "9,110"}, {"measurement": "Peak Area in rat plasma, Rat 3", "setting": "[8]", "result": "8,020"}, {"measurement": "Peak Area in rat plasma, Rat 1", "setting": "[9]", "result": "57,590"}, {"measurement": "Peak Area in rat plasma, Rat 2", "setting": "[9]", "result": "213,825"}, {"measurement": "Peak Area in rat plasma, Rat 3", "setting": "[9]", "result": "46,167"}, {"measurement": "Peak Area in rat plasma, Rat 1", "setting": "[10]", "result": "37,493"}, {"measurement": "Peak Area in rat plasma, Rat 2", "setting": "[10]", "result": "179,554"}, {"measurement": "Peak Area in rat plasma, Rat 3", "setting": "[10]", "result": "50,847"}, {"measurement": "Peak Area in rat plasma, Rat 1", "setting": "[11]", "result": "37,603"}, {"measurement": "Peak Area in rat plasma, Rat 2", "setting": "[11]", "result": "152,537"}, {"measurement": "Peak Area in rat plasma, Rat 3", "setting": "[11]", "result": "45,812"}, {"measurement": "Peak Area in rat plasma, Rat 1", "setting": "[12]", "result": "34,050"}, {"measurement": "Peak Area in rat plasma, Rat 2", "setting": "[12]", "result": "117,814"}, {"measurement": "Peak Area in rat plasma, Rat 3", "setting": "[12]", "result": "49,738"}, {"measurement": "Peak Area in rat plasma, Rat 1", "setting": "[13]", "result": "61,323"}, {"measurement": "Peak Area in rat plasma, Rat 2", "setting": "[13]", "result": "153,360"}, {"measurement": "Peak Area in rat plasma, Rat 3", "setting": "[13]", "result": "75,786"}, {"measurement": "Peak Area in rat plasma, Rat 1", "setting": "[14]", "result": "41,246"}, {"measurement": "Peak Area in rat plasma, Rat 2", "setting": "[14]", "result": "114,191"}, {"measurement": "Peak Area in rat plasma, Rat 3", "setting": "[14]", "result": "42,370"}, {"measurement": "Peak Area in rat plasma, Rat 1", "setting": "[15]", "result": "46,844"}, {"measurement": "Peak Area in rat plasma, Rat 2", "setting": "[15]", "result": "100,506"}, {"measurement": "Peak Area in rat plasma, Rat 3", "setting": "[15]", "result": "25,104"}, {"measurement": "Peak Area in rat plasma, Rat 1", "setting": "[16]", "result": "14,934"}, {"measurement": "Peak Area in rat plasma, Rat 2", "setting": "[16]", "result": "80,236"}, {"measurement": "Peak Area in rat plasma, Rat 3", "setting": "[16]", "result": "40,752"}, {"measurement": "amount of idronoxil observed in plasma, rectal relative to oral administration", "setting": "at 3 to 4 hours after administration", "result": "3 to 4", "unit": "times"}, {"measurement": "time for which blood levels >20 ng/mL were achieved", "setting": "idronoxil dosed orally (intestinal delivery model)", "result": "about 3 hours"}, {"measurement": "time from administration by which the bulk of the total exposure is completed", "setting": "intestinally-dosed rats", "result": "about 3 hours"}, {"measurement": "maximum concentration of free idronoxil", "setting": "[17]", "result": "significantly greater"}, {"measurement": "proportion of drug metabolized by Phase 2 metabolism", "setting": "[17]", "result": "considerably greater"}, {"measurement": "half-life", "setting": "oral delivery (intestinal delivery model)", "result": "~45", "unit": "min"}, {"measurement": "half-life", "setting": "rectal idronoxil", "result": "> 480", "unit": "min"}, {"measurement": "concentration at 0 h", "setting": "[18]", "result": 33.8, "unit": "ng/mL"}, {"measurement": "concentration at 0 h", "setting": "[19]", "result": 33.8, "unit": "ng/mL"}, {"measurement": "concentration at 1 h", "setting": "[18]", "result": 118, "unit": "ng/mL"}, {"measurement": "concentration at 1 h", "setting": "[20]", "result": 114, "unit": "ng/mL"}, {"measurement": "concentration at 1 h", "setting": "[19]", "result": 114, "unit": "ng/mL"}, {"measurement": "concentration at 1 h", "setting": "lipid emulsion, read-out: Idronoxil Plasma Concentration Rat 3", "result": 128, "unit": "ng/mL"}, {"measurement": "concentration at 2 h", "setting": "[18]", "result": 158, "unit": "ng/mL"}, {"measurement": "concentration at 2 h", "setting": "[20]", "result": 200, "unit": "ng/mL"}]}]}
